# Where two headings read alike, the source gives them in different places.
# Columns and labels:
# heme oxygenase 1 (HO-1) [1] = experiment: Heme oxygenase 1 (HO-1) ELISA on lysates of adult fibroblasts treated with isothiocyanates (Example 2); format: cell-based; details: primary human adult dermal fibroblast cells; for HO-1 (pg HO-1 per μg protein): 24 hours, vehicle control 179 ± 28; for production of HO-1 (in words): either at 1 or 2 μM
# Protocol: Primary human adult dermal fibroblast cells were routinely cultured and passaged in Dulbecco's Modified Eagle Medium (DMEM) supplemented with 10% foetal bovine serum (FBS), known as complete medium. Cells were plated out in 12-well tissue culture plates at a seeding density of 20,000 cells per well in 1 ml of low serum medium (DMEM supplemented with 1% FBS) and incubated at 37° C. in 5% CO2 for 96-120 hours before addition of the test samples.
# The isothiocynates (all from Sigma-Aldrich Company) sulforaphane, allyl isothiocyanate (AITC), alpha-naphthyl isothiocyanate (NITC), phenethyl isothiocyanate (PEITC) and benzyl isothiocyanate (BITC) were prepared in dimethyl sulphoxide (DMSO) and diluted in DMEM supplemented with 1% FBS to a final concentration of 1 uM and 2 uM. Dermal fibroblasts were treated with 1 ml/well of the test samples for a period of 24 hours. A solvent vehicle was included in each experimental plate.
# After 24 hours the cell monolayer was washed with 1 ml of Dulbecco's Phosphate Buffered Saline (DPBS) per well and lysed with 400 μl of RIPA cell lysis buffer per well. The RIPA cell lysis buffer consisted of 150 mM NaCl, 1% v/v Nonidet-P40 (Igepal CA603 from Fluke 56741), 0.1% w/v sodium dodecyl sulphate (SDS) and 0.1% w/v sodium deoxycholate in 50 mM Tris-HCL buffer at pH 7.6. Protease inhibitor tablets were added to the lysis buffer immediately prior to use, at the manufacturer's recommended level. The plates received one freeze thaw cycle to ensure complete cell lysis. The lysates were subsequently clarified by scraping the samples off the plates with a pipette tip, centrifuging at 13,000 rpm for 10 minutes and transferring the supernatant into a 96 well microtitre plate. The clarified lysates were stored at −20° C. until needed.
# The heme oxygenase 1 (HO-1) protein concentration of each cell lysate was assayed using the Human HO-1 ELISA Kit from Assay Designs (ADI-EKS-800, Enzo Life Sciences, UK) according to the manufacturer's instructions. Briefly, […] were diluted 1 in 10 in sample diluent, and 100 μl transferred to the pre-coated anti-HO-1 immunoassay plate. A 7-point recombinant HO-1 standard curve, ranging from 25 to 0.39 ng/ml, was also prepared in sample diluent. The immunoassay plate was incubated at room temperature for 30 minutes, washed six times with Wash Buffer, and incubated for a further 60 minutes at room temperature with 100 μl/well of anti-HO-1 antibody solution. The plate was washed as above and incubated for 30 minutes at room temperature with 100 μl/well of horseradish peroxidase (HRP)-conjugate solution. Again the plate was washed as above and 100 μl/well of 3,3′,5,5′-tetramethylbenzidine (TMB)-substrate added to each well for 15 minutes at room temperature in the dark. Following the addition of 100 μl/l well of stop solution, the absorbance was read at 450 nm on a microplate reader (Dynex MRX) and the unknown lysate levels of HO-1 were extrapolated from the standard curve. […]
# [2] = tested on: myrosinase from Raphanus sativus var. longipinnatus (daikon); details: cited from earlier work; for effect on enzymic activity (in words): sinigrin as substrate, pH 6.0; for reaction velocity, % of that with 500 μM ascorbic acid: 150 μM sinigrin
# [3] = tested on: primary human neonatal dermal fibroblast cells
# heme oxygenase 1 (HO-1) [4] = experiment: Heme oxygenase 1 (HO-1) ELISA on lysates of fibroblasts treated 24 hours, normalised to total protein (Example 1); format: cell-based, human; details: 8.4 mM controls
# Protocol: Primary human neonatal dermal fibroblast cells were cultured and passaged in Dulbecco's Modified Eagle Medium (DMEM) supplemented with 10% foetal bovine serum (FBS), known as complete medium. Cells were routinely plated out in 24-well tissue culture plates at a seeding density of 40,000 cells per well in 1 ml complete medium, and incubated at 37° C. in 5% CO2 for 48 hours before addition of the test solutions.
# After removal and storage of the tissue culture supernatant, the cell monolayer was washed with 1 ml of Dulbecco's Phosphate Buffered Saline (DPBS) per well and lysed with 200 μl cell lysis buffer per well. The cell lysis buffer consisted of 0.5% w/w Triton™ X100 (octyl phenol ethoxylate) and 1 mM ethylenediaminetetraacetic acid (EDTA) in phosphate buffer solution (PBS) at pH 7.2. Protease inhibitor tablets were added to the lysis buffer immediately prior to use, at the manufacturer's recommended level. The plates received one freeze thaw cycle to ensure complete cell lysis. The lysates were subsequently clarified by scraping the samples off the plates with a pipette tip and passing them through an Acrowell™ filter plate (Pall Corporation) using an Acroprep™ vacuum manifold (Pall Corporation) into a 96 well microwell plate. The clarified lysates were stored at −20° C. until needed.
# A set of eight standard solutions ranging from 0 to 800 μg/ml protein was prepared from the supplied 2 mg/ml bovine serum albumin (BSA) stock solution. 10 μl of standard or cell lysate was added to duplicate wells of a flat-bottomed, 96-well microtitre plate. The reagent solution was prepared according to the kit instructions from 50 parts reagent A and 1 part reagent B. 200 μl of the final reagent was added to each well of the microtitre plate. The plate was mixed, covered and incubated at 37° C. for 30 minutes and absorbance read at 540 nm. A protein standard curve was constructed and used to determine the protein concentration of each individual cell lysate.
# The heme oxygenase 1 (HO-1) protein concentration of each cell lysate was assayed using the Human Total HO-1/HMOX1 DuoSet IC assay (R&D Systems Europe Ltd) according to the manufacturer's instructions. This DuoSet IC ELISA ([…]) contains the basic components required for the development of sandwich ELISAs to measure HO-1/HMOX1 (heme oxygenase (decycling) 1 which is a human gene that encodes for the enzyme heme oxygenase 1)/HSP32 (heat shock protein 32 (Hsp32), also known as heme oxygenase 1 (HO-1)) in cell lysates. An immobilized capture antibody specific for HO-1/HMOX1/HSP32 binds both phosphorylated and unphosphorylated HO-1/HMOX1/HSP32. […]
# [5] = tested on: rat basophilic leukemia (RBL-2H3) cells; details: cited from earlier work
# [6] = tested on: primary human neonatal dermal fibroblast cells; experiment: Cytotoxicity assay, ApoTox-Glo Triplex Assay (dead-cell protease, bis-AAF-R110)
# [7] = tested on: myrosinase in partially purified extracts of six crucifers; details: cited from earlier work
# [8] = tested on: enzyme from Salix alba (white willow); details: cited from earlier work
# [9] = tested on: enzymes from several other Brassica species; details: cited from earlier work
structure (smiles),measurement,setting,value
C[S+]([O-])CCCCN=C=S (stereo not drawn) [Sulforaphane],HO-1 (pg HO-1 per μg protein),heme oxygenase 1 (HO-1) [1]; 1 μM,280 ± 15 pg HO-1 per μg protein
same,HO-1 (pg HO-1 per μg protein),heme oxygenase 1 (HO-1) [1]; 2 μM,309 ± 45 pg HO-1 per μg protein
same,production of HO-1 (in words),heme oxygenase 1 (HO-1) [1],increase the production of HO-1
"S=C=NCCc1ccccc1 [Phenethyl isothiocyanate (PEITC), Phenethyl isothiocyanate]",HO-1 (pg HO-1 per μg protein),heme oxygenase 1 (HO-1) [1]; 1 μM,429 ± 49 pg HO-1 per μg protein
same,HO-1 (pg HO-1 per μg protein),heme oxygenase 1 (HO-1) [1]; 2 μM,668 ± 101 pg HO-1 per μg protein
same,production of HO-1 (in words),heme oxygenase 1 (HO-1) [1],increase the production of HO-1
"C=CCN=C=S [Allyl isocyanate control, Allyl isothiocyanate]",inhibition of activity (in words),[2]; concentrations as high as 1 mM,did not significantly inhibit activity
same,HO-1 (pg HO-1 per μg protein),heme oxygenase 1 (HO-1) [1]; 1 μM,207 ± 13 pg HO-1 per μg protein
same,HO-1 (pg HO-1 per μg protein),heme oxygenase 1 (HO-1) [1]; 2 μM,243 ± 26 pg HO-1 per μg protein
same,production of HO-1 (in words),heme oxygenase 1 (HO-1) [1],increase the production of HO-1
same,cytotoxicity to the fibroblast cells (in words),[3],"Neither myrosinase, nor the glucosinolate sinigrin, nor allyl isothiocyanate induce cytotoxicity on their own"
same,Cytotoxicity (RFU × 1000),"[3]; human, 24 h, 0.168 mM",66.71 ± 4.63 RFU × 1000
same,Normalised HO-1 (vehicle = 100),heme oxygenase 1 (HO-1) [4]; dilution 1/50,335.46 ± 54.80
same,Normalised HO-1 (vehicle = 100),heme oxygenase 1 (HO-1) [4]; dilution 1/100,383.74 ± 30.02
O=c1c(O)c(-c2ccc(O)c(O)c2)oc2cc(O)cc(O)c12 [Quercetin],Nrf2 translocation (in words),[5]; RBL-2H3 cells,translocate Nrf2 from cytoplasm into nucleus
same,mast cell degranulation and release of histamine (in words),[5],inhibit mast cell degranulation and subsequent release of histamine
"C=CCC(=NOS(=O)(=O)O)S[C@@H]1O[C@H](CO)[C@@H](O)[C@H](O)[C@H]1O [Sinigrin control, sinigrin (2-propenyl or allyl glucosinolate)]",Cytotoxicity (RFU × 1000),"[6]; 8.4 mM controls in complete medium, dilution 1/50, second series (untreated cells 18.63)",80.94 ± 39.75 RFU × 1000
same,cytotoxicity to the fibroblast cells (in words),"[6]; extract without heat treatment, single components on their own at comparable levels","Neither myrosinase, nor the glucosinolate sinigrin, nor allyl isothiocyanate induce cytotoxicity on their own"
same,Normalised HO-1 (vehicle = 100),heme oxygenase 1 (HO-1) [4]; dilution 1/50,168.32 ± 73.93
same,Normalised HO-1 (vehicle = 100),heme oxygenase 1 (HO-1) [4]; dilution 1/100,49.08 ± 12.98
"S=C=NCc1ccccc1 [Benzyl isothiocyanate (BITC), Benzyl isothiocyanate]",HO-1 (pg HO-1 per μg protein),heme oxygenase 1 (HO-1) [1]; 1 μM,381 ± 50 pg HO-1 per μg protein
same,HO-1 (pg HO-1 per μg protein),heme oxygenase 1 (HO-1) [1]; 2 μM,730 ± 170 pg HO-1 per μg protein
same,production of HO-1 (in words),heme oxygenase 1 (HO-1) [1],increase the production of HO-1
O=S(=O)(O)O [sulphate],effect on enzymic activity (in words),[2],inhibited activity competitively
O=C1O[C@H]([C@@H](O)CO)C(O)=C1O [ascorbic acid],"reaction velocity, % of that with 500 μM ascorbic acid",[2]; 0.75 mM ascorbic acid,90%
same,"reaction velocity, % of that with 500 μM ascorbic acid",[2]; 1.0 mM ascorbic acid,73%
same,effect on enzymic activity (in words),[2],enzymic activity was enhanced greatly
same,ascorbate concentrations for maximal activation of myrosinase,[7],0.7 to 5.0 mM
same,activation by ascorbate,[8],2-3 fold
same,activation by ascorbate,[9],8-12 fold
"S=C=Nc1cccc2ccccc12 [Alpha-naphthyl isothiocyanate (NITC), Alpha-naphthyl isothiocyanate]",HO-1 (pg HO-1 per μg protein),heme oxygenase 1 (HO-1) [1]; 1 μM,195 ± 25 pg HO-1 per μg protein
same,HO-1 (pg HO-1 per μg protein),heme oxygenase 1 (HO-1) [1]; 2 μM,191 ± 31 pg HO-1 per μg protein
same,production of HO-1 (in words),heme oxygenase 1 (HO-1) [1],increase the production of HO-1
